According to patent US7862844B2, “Taste improving substances” (Quest International Services B.V., priority 2005, dated 2011):

Experiments:
[1] = samples tasted by a professional panel
Experimental: The following samples were prepared:
A: 0.6% NaCl and 0.03% MSG
B: 0.01% Fraction 2 as obtained in example 1
C: 0.6% NaCl and 0.03% MSG and 0.5 ppt Fraction B as obtained in example 1
D: 0.6% NaCl and 0.03% MSG and 0.4 ppb Fraction A as obtained in example 1
The samples were tasted by a professional panel and described as follows: […]

[2] = tasting different fractions of the Example 1 product (LC-MS, 1H NMR identification); conditions: fractions of the lactic acid/GMP reaction product of Example 1
Experimental: 1000 g of lactic acid (about 90% pure), 50 g of NaCl and 250 g of GMP were thoroughly mixed. The mixture was heated and stirred at 100° C. for 4 hour. The mixture was cooled to 60° C. and 4000 g of ethyl acetate was added. The mixture was stirred for 1 h. Next, the mixture was filtered over a glass filter and the filter residue was washed with 1000 g ethyl acetate. Thus, 362 g of an almost white powder was obtained. The main taste components of the obtained product were identified by LC-MS and tasting different fractions.

| Substance | taste description by professional panel ([1]; sample B: 0.01% of the fraction alone) | taste description by professional panel ([1]; sample C: 0.5 ppt of the fraction with 0.6% NaCl and 0.03% MSG (base alone: salty, umami)) | taste of the fractions containing the substance [2] | taste description by professional panel ([1]; sample D: 0.4 ppb of the fraction with 0.6% NaCl and 0.03% MSG (base alone: salty, umami)) |
| --- | --- | --- | --- | --- |
| N-Lactoyl-GMP [Fraction B] | mild acidic, late onset umami, kokumi, full, sweet, very lingering | salty, umami, full, mouthfeel, kokumi, salivating and very lingering | “long-lasting” and “kokumi” | – |
| O-Lactoyl-GMP [Fraction A] | – | – | “long-lasting” and “kokumi” | salty, umami, full, after taste and lingering |
